Source: US4968672A, “Adenosine receptor prodrugs” (priority 1987, dated 1990)
Read-outs that look alike come from different tables or passages of the source.

Assays:
[1] = test system: adenosine receptors; assay: adenosine agonist activity
[2] = test system: renin release; assay: renin release by the kidney; assay type: in vivo
[3] = test system: blood brain barrier / central nervous system; assay: brain entry / central side effects
[4] = test system: adenosine receptors (kidney and non-renal vasculature); assay: blood pressure and sodium excretion in CHA-treated rats (Table 4); assay type: in vivo, rat
Procedure: ^1 CHA = N^6 -cyclohexyladenosine administered as a constant
infusion of 10 nanmoles/min./kg. Total dose administered over 45 min. was
approximately […] (= relatively high dose).
^2 Xanthine antagonists were administered in a bolus injection of 0.2
umoles/kg followed by an infusion of 2 nanamoles per kg/min.

[5] = test system: adenosine receptors (glomerular filtration rate); assay: glomerular filtration rate after N6-cyclohexyladenosine in rats; assay type: in vivo, rat
[6] = test system: acute renal failure; assay: acute renal failure models (ischemia, glycerol injection); assay type: in vivo; conditions: compared with theophylline and 8-phenyltheophylline
[7] = target: T1, A1 adenosine receptors (Rattus norvegicus, UniProt P25099); assay: membrane binding assay at A1 adenosine receptors (Tables 1 and 2)
T1 construct: rat cerebral cortex membranes; from tissue; host or cells: rat cerebral cortex membranes
T1 sequence (P25099 1-326): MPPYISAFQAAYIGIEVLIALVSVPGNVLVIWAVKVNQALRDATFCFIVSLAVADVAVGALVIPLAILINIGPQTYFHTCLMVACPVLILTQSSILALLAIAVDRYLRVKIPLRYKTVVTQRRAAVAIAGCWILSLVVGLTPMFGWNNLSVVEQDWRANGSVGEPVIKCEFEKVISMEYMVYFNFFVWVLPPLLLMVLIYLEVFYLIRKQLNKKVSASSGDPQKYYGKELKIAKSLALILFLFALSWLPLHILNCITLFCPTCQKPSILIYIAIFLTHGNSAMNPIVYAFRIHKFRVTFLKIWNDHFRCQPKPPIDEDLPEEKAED
From the text: Table 2 lists prodrugs (including Routes A and B of FIG. 2) and chemical intermediates, based on xanthine and adenosine functionalized congener and the method of synthesis. The potency of each compound at A1 adenosine receptors is indicated by the Ki (inverse relationship to potency) in a membrane binding assay.

[8] = solubility; assay type: physicochemical
[9] = test system: A2 adenosine receptors; assay: reversal of 2-chloroadenosine-stimulated cyclic AMP production in guinea pig brain slices; assay type: cell-based; conditions: amino acid conjugates of 1a
From the text: […]. As modifications of these xanthines designed to increases A2 -potency we have explored changing the size of the 1,3-dialkyl groups and incorporating distal amino groups in the functionalized 8-phenyl moiety.

[10] = stability to enzymatic hydrolysis; assay type: in vitro ADME
[11] = target: T2, A2 receptor (Homo sapiens, UniProt P29274); assay: antagonism of NECA-induced stimulation of adenylate cyclase activity in human platelet membranes; assay type: biochemical; conditions: antagonism of NECA-stimulated adenylate cyclase, human platelet membranes; means with 95% confidence limits from 3 experiments; read-out: A2 receptor KB
T2 construct: human platetlet membranes; from tissue; host or cells: human platelet membranes
T2 sequence (P29274 whole entry): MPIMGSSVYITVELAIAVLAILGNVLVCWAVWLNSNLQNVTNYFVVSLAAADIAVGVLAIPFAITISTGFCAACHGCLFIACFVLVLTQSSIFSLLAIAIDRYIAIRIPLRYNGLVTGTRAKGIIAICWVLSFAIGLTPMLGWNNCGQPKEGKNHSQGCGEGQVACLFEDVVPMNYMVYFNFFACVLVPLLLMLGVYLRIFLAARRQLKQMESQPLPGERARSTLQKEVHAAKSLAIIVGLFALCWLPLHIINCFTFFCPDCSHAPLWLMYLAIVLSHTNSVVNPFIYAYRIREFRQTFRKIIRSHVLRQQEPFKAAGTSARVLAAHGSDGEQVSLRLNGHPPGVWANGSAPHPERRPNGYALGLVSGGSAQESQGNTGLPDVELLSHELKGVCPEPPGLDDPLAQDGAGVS
Procedure: Measurements of the potencies of the xanthines as antagonists of NECA-induced stimulation of adenylate cyclase activity in human platetlet membranes and as inhibitors of [^3 H]PIA binding to rat cerebral cortex membranes were carried out as reported previously.

[12] = test system: A1-receptors; conditions: cited from earlier work
[13] = CHA infusion 10 nmol/min/kg, antagonists 0.2 umoles/kg bolus then 2 nmol/kg/min

NCCNC(=O)Cc1ccc(NC(=O)Cc2ccc(Nc3ncnc4c3ncn4[C@@H]3O[C@H](CO)[C@@H](O)[C@H]3O)cc2)cc1 [Compound 1b]
adenosine agonist potency in vitro and in vivo [1]: highly potent as an adenosine agonist in vitro and in vivo
renin release by the kidney [2]: a decrease in renin release by the kidney
entry into the brain / passage across the blood brain barrier [3]: excluded from passage across the blood brain barrier

CCCn1c(=O)c2[nH]c(-c3ccc(OCC(=O)NCCNC(=O)CC[C@H](NC(C)=O)C(=O)O)cc3)nc2n(CCC)c1=O [Compound 17, N-Acetyl-glutamic acid (gamma XAC)]
reversal of hypotensive effect of adenosine agonists (non-renal vasculature) [4]: not by the prodrug, 17
Sodium excretion [4, 13]: 2.12 ± 0.36 uEq/min/kg
b.p. [4, 13]: 103.5 ± 3.5 mmHg
reversal of the effect of the adenosine agonist on glomerular filtration rate ([5]; XAC I.V. 5-50 ug/kg): even greater return of glomerular filtration rate than did XAC
% of normal glomerular filtration rate (after) ([5]; dose 10 × low, after xanthine, CHA-treated rats): 84.8%
% of normal glomerular filtration rate (before) ([5]; dose 10 × low, before xanthine, CHA-treated rats): 48%
effect in acute renal failure [6]: act in the same manner except for considerably greater potency and selectivity
Ki ([7]; Table 1, prodrug before cleavage, read-out: Ki(nM) at A1 Before Cleavage): 240 nM
Ki ([7]; Table 2, read-out: Ki (A1(nM))): 240 nM
central side effects [3]: side effects of the xanthine acting as a central stimulant are not observed
entry into the brain / passage across the blood brain barrier [3]: entry into the brain is impeded

CCCn1c(=O)c2[nH]c(-c3ccc(OCC(=O)NCCNC(=O)[C@H](N)CCCCN)cc3)nc2n(CCC)c1=O [Compound 61c]
water solubility [8]: high water solubility
potency [9]: high potency
stability to enzymatic hydrolysis [10]: stability to enzymatic hydrolysis
Kb [11]: 37 nM

CCCn1c(=O)c2[nH]c(-c3ccc(OCC(=O)NCCN)cc3)nc2n(CCC)c1=O [[^3 H]XAC]
affinity compared with [3H]DPX [12]: higher affinity
